The results in this text go back to patent US12599597B2, “Substituted N-benzhydrylacetamide inhibitors of jumanji domain histone demethylases for the treatment of cancer” (University of Kentucky Research Foundation, priority 2020, dated 2026).

The test system of this assay is histone methylation in CRC cells. As to the kind of experiment: Histone methylation in CRC cells. It is filed as cell-based. From the text:
CBA-1 increased repressive histone methylation on Wnt target genes. The present inventors reported that mutations in APC or β-catenin N-terminal phosphorylation sites prevented β-catenin degradation in CRC cells. […] Because CBA-1 inhibited Wnt signaling in CRC cells, it was reasonable to assume that it inhibited Wnt signaling downstream of β-catenin, most likely by blocking β-catenin activity in the nucleus. Consequently, the present inventors hypothesized that CBA-1 inhibited Wnt signaling epigenetically by altering chromatin remodeling, and they probed the effects of CBA-1 on histone methylation in CRC cells.

For `CCCC(=O)NC(c1ccc(N(CC)CC)cc1)c1cc(Cl)c2cccnc2c1O` (stereo not drawn) [58B1], the “H3K4Me^2” value is “no effect”, the “levels of H3K9Me^2” value is “significantly increased” and the “levels of H3K9Me^3” value was “significantly increased”.
